Results as given in patent US20220054412A1, “TOPICAL FORMULATION AND METHODS FOR […]” (priority 2020, published 2022).

Assay: Use of the topical neuropathy relief formulation by patients (example cases)
Assay type: in vivo, human
Conditions: Patient, severe debilitating neuropathy for six years; medications tried before the formulation; high doses of gabapentin
Excerpt: The neuropathy relief formulation is applied in an amount sufficient to cover the affected area of clean dry skin. The neuropathy relief formulation is rubbed into the affected area until no cream remains visible on the surface. The formulation can be applied one, two, three or four times per day as needed for relief of symptoms.
The following example cases are from a few of the individuals who have been successfully treated with the claimed formulation

SMILES	outcome of earlier medications for neuropathy
NCC1(CC(=O)O)CCCCC1 [gabapentin]	unsuccessful
CCC(=O)C(CC(C)N(C)C)(c1ccccc1)c1ccccc1 (centres unmarked) [methadone]	unsuccessful
